US11179363B2, “Non-steroidal selective glucocorticoid receptor agonistic modulators (SEGRAMs) and uses thereof” (ASSOCIATION POUR LA RECHERCHE À L'IGBMC (ARI), priority 2017, dated 2021)

Assays:
[1] = test system: collagen-induced Th17 rheumatoid arthritis-like inflammation; assay: Collagen-induced arthritis (CIA); assay type: in vivo, mice (DBA-1 strain); settings: for RNA transcripts of pro-inflammatory genes in hind paws (IL-1β, IL-6, IL-17a, IL-17f, TNFα): i.p. 1 mg/kg daily, T10, q-RT-PCR; for hind paw thickness at the ankle level: i.p. 1 mg/kg daily for 10 days (T0 to T10)
Description: Mice were treated with collagen to induce a Th17 rheumatoid arthritis-like inflammation as described by Inglis et al. (2007. Arthritis Res Ther. 9(5):R113) and Geboes et al. (2009. Arthritis Rheum. 60(2):390-5).
Male mice (DBA-1 strain) were subcutaneously-injected with 100 μg collagen per mouse on D0. The hind paw thickness at the ankle level was regularly measured with a caliper. When the ankle thickness had reached around 4 mm (T0, i.e., 30 to 50 days after the collagen injection on D0), mice were daily intraperitoneally-injected for 10 days (T0 to T10) with either vehicle (NaCl 0.9%), Dex, CpdX, CpdX(eA), CpdX(eB), CpdX-D3, CpdX-D3(eA) or CpdX-D3(eB) (1 mg/kg body weight diluted in NaCl 0.9%), and the hind paw thickness at the ankle level was daily measured with a caliper. Pictures of the hind paws were taken at days T0 and T10 (before and after the treatment with either Vehicle, Dex, CpdX, CpdX(eA), CpdX(eB), CpdX-D3, CpdX-D3(eA) or CpdX-D3(eB)), in order to assess the course of swelling.
RNA transcripts were extracted from whole hind paws of collagen-untreated and collagen-treated mice at T0 and T10. IL-1β, IL-6, IL-17a, IL-17f and TNFα transcripts were analyzed by q-RT-PCR.

[2] = test system: DSS-induced Th17 ulcerative colitis; assay: Dextran sodium sulfate (DSS)-induced ulcerative colitis; assay type: in vivo, Balb/C mice; settings: for pro-inflammatory genes overexpressed in DSS-induced ulcerative colitis (IL-1β, IL-6, IL-17a, IL-17f, TSLP, MMP13): colon, q-RT-PCR, D14; for colonic villus/crypt structure (histology) / mucosal and submucosal cell infiltration (histology): i.p. 1 mg/kg on D11, D12, D13, 3% DSS 13 days
Description: To investigate the anti-inflammatory activity of CpdX and CpdX-D3 on a Th17 ulcerative colitis, Balb/C mice were treated with 3% DSS in drinking water for 13 days, with or without an intraperitoneal administration of either Dex, CpdX, CpdX(eA), CpdX(eB), CpdX-D3, CpdX-D3(eA) or CpdX-D3(eB) (1 mg/kg of body weight) on D11, D12 and D13.
At D14, RNA transcripts were extracted from mouse colons. IL-1β, IL-6, IL-17a, IL-17f, TSLP and MMP13 transcripts were analyzed by q-RT-PCR. Colon samples were also harvested for histological analyses (with H&E staining).

[3] = test system: OVA-induced allergic conjunctivitis; assay: Ovalbumin (OVA)-induced allergic conjunctivitis; assay type: in vivo, Balb/C mice; settings: 0.1% instillation D22 to D24, 20 minutes after the last OVA challenge
Description: To investigate the anti-inflammatory effect of CpdX or CpdX-D3 on an allergic conjunctivitis, Balb/C mice were intraperitoneally sensitized with 50 μg OVA with alum on both days D1 and D8, and then challenged from D15 to D21 with 250 μg OVA in 5 μL of sterilized vehicle (0.9% NaCl), which were directly instilled onto the conjunctival sac. From D22 to D24, mice were divided into several groups, and received instillations with either OVA alone, OVA together with 0.1% of either Dex, CpdX, CpdX(eA), CpdX(eB), CpdX-D3, CpdX-D3(eA) or CpdX-D3(eB).
The clinical appearance of mouse eyes was evaluated 20 minutes after the last instillation on D24. Clinical signs (conjunctival hyperemia, lid edema and tearing) were scored to evaluate the occurrence and severity of conjunctivitis as described by Gimenes et al. (2015. Experimental Eye Research 134:24-32). Parameters were graded on a scale ranging from 0 to 3, (0=absence, 1=mild, 2=moderate, and 3=severe symptoms), each animal receiving a total clinical score ranging from 0 to 9. The data were expressed as mean±SEM with at least four mice per treatment.

[4] = test system: dorsal skin of Balb/C mice; assay: Skin epidermis atrophy after 8-day topical treatment of dorsal skin; assay type: in vivo; settings: eight-day topical treatment
Text: To investigate whether, similarly to Dex, a topical administration of CpdX could result in a skin atrophy, Balb/C mice were shaved on the dorsal skin. Ethanol (vehicle), Dex, CpdX or either one of its two enantiomers CpdX(eA) or CpdX(eB), as well as the deuterated form CpdX-D3 or either one of its two enantiomers CpdX-D3(eA) or CpdX-D3(eB), were topically applied onto the dorsal skin for 8 days.
Upon completion of the treatments, RNA transcripts were extracted from dorsal skin samples and the transcripts of Kindlin-1 and REDD1 genes were analyzed by q-RT-PCR. Histological and morphometric analyses of the dorsal skin were also performed.

[5] = test system: thymus, spleen, adrenal gland and kidney; assay: Organ weights (thymus, spleen, adrenal gland, kidney) after three-month treatment; assay type: in vivo, B6 male mice; settings: s.c. 1 mg/kg daily, three months
Description: B6 male mice (8-week-old) were daily subjected for three months to a subcutaneous injection of either vehicle (NaCl 0.9%), Dex, CpdX, CpdX(eA), CpdX(eB), CpdX-D3, CpdX-D3(eA) or CpdX-D3(eB) (1 mg/kg body weight, diluted in vehicle). Following these treatments, four organs (thymus, spleen, adrenal gland and kidney) were harvested and weighted.

[6] = test system: adrenal glands; assay: Corticosterone synthesis and adrenal gland after three-month treatment; assay type: in vivo, B6 male mice; settings: three months; for cortex layers, most notably the fasciculata zone, of the adrenal glands (histology) / transcripts of Cyp11a, Cyp11b1 and HSD3β genes in adrenal glands (corticosterone synthesis pathway): s.c. 1 mg/kg daily; for transcripts of Cyp11a, Cyp11b1 and HSD3β genes in adrenal glands (corticosterone synthesis pathway): q-RT-PCR; for plasmatic corticosterone level at 10 a.m.: vs Vehicle
Description: B6 male mice (8-week-old) were daily subjected for three months to either a subcutaneous injection of vehicle (NaCl 0.9%), Dex, CpdX, CpdX(eA), CpdX(eB), CpdX-D3, CpdX-D3(eA) or CpdX-D3(eB) (1 mg/kg body weight, diluted in vehicle).
Following this long-term treatment, blood was collected at 10 a.m. and 6 p.m. by retro-orbital puncture in lithium-heparin coated vials, and the plasmatic level of corticosterone was determined. Adrenal glands were harvested and weighted. RNA transcripts were extracted and transcripts of the Cyp11a, Cyp11b1, Cyp11b2 and HSD3β genes were analyzed by q-RT-PCR. Histological analyses of the adrenal glands were also carried out.

[7] = Blood glucose and intraperitoneal glucose tolerance test (IPGTT) after three-month treatment; assay type: in vivo, B6 male mice; settings: three months; glucose i.p. injection
Description: B6 male mice (8-week-old) were daily subjected for three months to a subcutaneous injection of either vehicle (NaCl 0.9%), Dex, CpdX, CpdX(eA), CpdX(eB), CpdX-D3, CpdX-D3(eA) or CpdX-D3(eB) (1 mg/kg body weight, diluted in vehicle). Mice were over-night-fasted. Mouse blood glucose concentration was measured before (To) and during two hours (T120) after glucose i.p. injection ([…]).

epidermal thickness (morphometric analyses) [4]	cortex layers, most notably the fasciculata zone, of the adrenal glands (histology) [6]	transcripts of Cyp11a, Cyp11b1 and HSD3β genes in adrenal glands (corticosterone synthesis pathway) [6]	plasmatic corticosterone level at 10 a.m. [6]	SMILES	RNA transcripts of pro-inflammatory genes in hind paws (IL-1β, IL-6, IL-17a, IL-17f, TNFα) ([1]; 1 mg/kg)	pro-inflammatory genes overexpressed in DSS-induced ulcerative colitis (IL-1β, IL-6, IL-17a, IL-17f, TSLP, MMP13) [2]	colonic villus/crypt structure (histology) [2]	mucosal and submucosal cell infiltration (histology) [2]	clinical signs of allergic conjunctivitis (conjunctival hyperemia, lid edema and tearing) [3]	thymus apoptosis (thymus weight) [5]	blood glucose level during two-hour IPGTT [7]	hind paw thickness at the ankle level [1]	RNA transcripts of pro-inflammatory genes in hind paws (IL-1β, IL-6, IL-17a, IL-17f, TNFα) [1]
not significantly decreased	markedly increased	increased	much higher	COc1ccc(F)cc1C(C)(C)CC(O)(CNc1ccc2c(c1)COC2=O)C(F)(F)F (single isomer, unassigned; enantiomer a) [CpdX(eA), 5-[4-(5-fluoro-2-methoxyphenyl)-2-hydroxy-4-methyl-2-(trifluoromethyl)-pentylamino]isobenzofuran-1(3H)-one enantiomer A]	similarly repressed	similarly repressed	almost reestablished	significantly decreased	considerably reduced	did not result in any significant thymus apoptosis	no significant difference	–	–
not significantly decreased	markedly increased	increased	much higher	[2H]C([2H])([2H])Oc1ccc(F)cc1C(C)(C)CC(O)(CNc1ccc2c(c1)COC2=O)C(F)(F)F (single isomer, unassigned; enantiomer a) [CpdX-D3(eA), 5-{4-[2-(methoxy-D3)-5-fluorophenyl]-2-hydroxy-4-methyl-2-(trifluoromethyl)pentylamino}isobenzofuran-1(3H)-one enantiomer A]	similarly repressed	similarly repressed	almost reestablished	significantly decreased	considerably reduced	did not result in any significant thymus apoptosis	no significant difference	–	–
not significantly decreased	markedly increased	increased	much higher	[2H]C([2H])([2H])Oc1ccc(F)cc1C(C)(C)CC(O)(CNc1ccc2c(c1)COC2=O)C(F)(F)F (racemic) [CpdX-D3, 5-{4-[2-(methoxy-D3)-5-fluorophenyl]-2-hydroxy-4-methyl-2-(trifluoromethyl)pentylamino}isobenzofuran-1(3H)-one]	–	similarly repressed	almost reestablished	significantly decreased	considerably reduced	did not result in any significant thymus apoptosis	no significant difference	rapid decrease	similarly repressed
not significantly decreased	markedly increased	increased	much higher	COc1ccc(F)cc1C(C)(C)CC(O)(CNc1ccc2c(c1)COC2=O)C(F)(F)F (racemic) [CpdX, 5-[4-(5-fluoro-2-methoxyphenyl)-2-hydroxy-4-methyl-2-(trifluoromethyl)pentylamino]-isobenzofuran-1(3H)-one]	–	similarly repressed	almost reestablished	significantly decreased	considerably reduced	did not result in any significant thymus apoptosis	no significant difference	rapid decrease	similarly repressed
